Test results reported in ChEMBL document CHEMBL2407047, “Molecular design, synthesis and biological evaluation of 1,4-dihydro-4-oxoquinoline ribonucleosides as TcGAPDH inhibitors with trypanocidal activity” (Bioorg Med Chem Lett, 2013).
Activity calls are given as the source filed them. The rule behind the calls is not given here.

What follows are compounds tested on Saccharomyces cerevisiae (assay: Effect on Saccharomyces cerevisiae TDH3 up to 500 uM).
For `O=C(O)c1cn([C@@H]2O[C@H](CO)[C@@H](O)[C@H]2O)c2cc(Br)ccc2c1=O`, the Activity was “inactive”.
For `O=C(O)c1cn([C@@H]2O[C@H](CO)[C@@H](O)[C@H]2O)c2ccc(Br)cc2c1=O`, the Activity was “inactive”.
In the case of `Cc1ccc2c(=O)c(C(=O)O)cn([C@@H]3O[C@H](CO)[C@@H](O)[C@H]3O)c2c1`, the Activity is reported as “inactive”.
`COc1ccc2c(=O)c(C(=O)O)cn([C@@H]3O[C@H](CO)[C@@H](O)[C@H]3O)c2c1` was tested, and the Activity was “inactive”.
In the case of `COc1ccc2c(c1)c(=O)c(C(=O)O)cn2[C@@H]1O[C@H](CO)[C@@H](O)[C@H]1O`, the Activity is reported as “inactive”.
In the case of `Cc1ccc2c(c1)c(=O)c(C(=O)O)cn2[C@@H]1O[C@H](CO)[C@@H](O)[C@H]1O`, the Activity is reported as “inactive”.
For `O=C(O)c1cn([C@@H]2O[C@H](CO)[C@@H](O)[C@H]2O)c2ccc(Cl)cc2c1=O`, the Activity was “inactive”.

The compounds below were run on Saccharomyces cerevisiae (assay: Effect on Saccharomyces cerevisiae TDH2 up to 500 uM).
For `O=C(O)c1cn([C@@H]2O[C@H](CO)[C@@H](O)[C@H]2O)c2cc(Br)ccc2c1=O`, the Activity was “inactive”.
In the case of `O=C(O)c1cn([C@@H]2O[C@H](CO)[C@@H](O)[C@H]2O)c2ccc(Br)cc2c1=O`, the Activity is reported as “inactive”.
`Cc1ccc2c(=O)c(C(=O)O)cn([C@@H]3O[C@H](CO)[C@@H](O)[C@H]3O)c2c1` was tested, and the Activity was “inactive”.
With `COc1ccc2c(=O)c(C(=O)O)cn([C@@H]3O[C@H](CO)[C@@H](O)[C@H]3O)c2c1` the Activity was “inactive”.
For `COc1ccc2c(c1)c(=O)c(C(=O)O)cn2[C@@H]1O[C@H](CO)[C@@H](O)[C@H]1O`, the Activity was “inactive”.
With `Cc1ccc2c(c1)c(=O)c(C(=O)O)cn2[C@@H]1O[C@H](CO)[C@@H](O)[C@H]1O` the Activity was “inactive”.
With `O=C(O)c1cn([C@@H]2O[C@H](CO)[C@@H](O)[C@H]2O)c2ccc(Cl)cc2c1=O` the Activity was “inactive”.

The compounds below were run on Saccharomyces cerevisiae (assay: Effect on Saccharomyces cerevisiae TDH1 up to 500 uM).
For `O=C(O)c1cn([C@@H]2O[C@H](CO)[C@@H](O)[C@H]2O)c2cc(Br)ccc2c1=O`, the Activity was “inactive”.
With `O=C(O)c1cn([C@@H]2O[C@H](CO)[C@@H](O)[C@H]2O)c2ccc(Br)cc2c1=O` the Activity was “inactive”.
In the case of `Cc1ccc2c(=O)c(C(=O)O)cn([C@@H]3O[C@H](CO)[C@@H](O)[C@H]3O)c2c1`, the Activity is reported as “inactive”.
`COc1ccc2c(=O)c(C(=O)O)cn([C@@H]3O[C@H](CO)[C@@H](O)[C@H]3O)c2c1` was tested, and the Activity was “inactive”.
In the case of `COc1ccc2c(c1)c(=O)c(C(=O)O)cn2[C@@H]1O[C@H](CO)[C@@H](O)[C@H]1O`, the Activity is reported as “inactive”.
`Cc1ccc2c(c1)c(=O)c(C(=O)O)cn2[C@@H]1O[C@H](CO)[C@@H](O)[C@H]1O` was tested, and the Activity was “inactive”.
For `O=C(O)c1cn([C@@H]2O[C@H](CO)[C@@H](O)[C@H]2O)c2ccc(Cl)cc2c1=O`, the Activity was “inactive”.
